Patent publication US20210322508A1, “PEPTIDES AND COMPOSITIONS FOR TARGETED TREATMENT AND IMAGING” (SIGNABLOK, INC., priority 2018, published 2021)

Tested on: J774 macrophages
Assay: in vitro macrophage uptake (endocytosis) of rho B-labeled peptides and lipopeptide complexes
Type: cell-based, murine
Details: 1 h pretreatment: 40 μM cytochalasin D, 400 μg/mL fucoidan, 10 μM BLT-1; uptake 4 h and 22 h
Protocol: In Vitro Macrophage Uptake of GF9HDL and GA/E31HDL A quantitative in vitro macrophage assay of endo-cytosis of rho B-labeled HDL-mimicking lipopeptide complexes by J774 macrophage was performed as described. (18-20) Briefly, BALB/c murine macrophage J774A.1 cells (ATCC) were cultured at 37° C. with 5% CO2 in Dulbecco's modified Eagle's medium (Cellgro Mediatech, Manassas, Va.) with 2 mM glutamine, 100 U/mL penicillin, 0.1 mg/mL streptomycin, and 10% heat-inactivated fetal bovine serum (Cellgro Mediatech) and grown to approximately 90% confluency in 12-well tissue culture plates (Corning Costar, Corning, N.Y.).
Cells were washed twice using phosphate-buffered saline and lysed using Passive Lysis Buffer (Promega, Madison, Wis.). Rho B fluorescence was measured in the lysates with 544-nm excitation and 590-nm emission filters, using a Fluoroscan Ascent CF fluorescence microplate reader (Thermo Labsystems, Vantaa, Finland). Protein concentrations in the lysates were measured using Bradford reagent (Sigma-Aldrich) and an MRX microplate reader (Dynex Technologies, Chantilly, Va.) according to the manufacturer's recommended protocol.

| Molecule | effect of scavenger receptor inhibitor on macrophage uptake of GF9-HDL and GA/E31-HDL |
| --- | --- |
| fucoidan [reference compound] | substantially suppressed endocytosis of TREM-1 inhibitor complexes at 22 hours but not at 4 hours |
| C=C1[C@@H](C)[C@H]2[C@H](Cc3ccccc3)NC(=O)[C@]23[C@H](OC(C)=O)/C=C/[C@@](C)(O)C(=O)[C@@H](C)C/C=C/[C@H]3[C@@H]1O [cytochalasin D, reference compound] | significantly inhibited |
| CCCCCCC1CCCC1=NNC(N)=S (stereo not drawn) [BLT-1, Blocker of lipid transport 1, reference compound] | similarly inhibited the uptake of the complexes at both time points but to a lesser extent |
